Reference: PubChem BioAssay AID504313 (Emory University Molecular Libraries Screening Center, 2011)
Activity calls are given as the source filed them. The rule behind the calls is not given here.

Molecular target: X-box-binding protein 1 (Homo sapiens) (UniProt P17861)
Test: XBP1 reporter suppression in cells – counter-screen, dose response (AID 504313);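 note: CHO cells carrying an XBP1 reporter stimulated with tunicamycin; potency is for inhibition of the tunicamycin-induced reporter signal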
Details: XBP1 reporter cell assay, percent of control

SMILES	IC50
Cc1ccc(S(=O)(=O)/N=C2/C=C(Sc3ncn[nH]3)C(=O)c3ccccc32)cc1	inactive
Cc1ccc(C(C)C)c(OCC(=O)N/N=C/C2CCCCC2)c1	inactive
CCN1/C(=C\C=C\C2=[N+](CC)c3ccccc3C2(C)C)C(C)(C)c2ccccc21	< 0.16 µM
Cc1ccc(C(=O)Nc2cnc3ccccc3c2)cc1	4.09 µM
COc1ccc(NC(=O)/C(Cl)=C(/Cl)S(=O)(=O)Cc2ccc(C)cc2)cn1	inactive
O=[N+]([O-])c1cc(S(=O)(=O)C(F)(F)F)ccc1Sc1nc2ccccc2[nH]1	inactive
O=C(N=Nc1c(O)n(Cc2ccccc2)c2ccccc12)c1cc2ccccc2cc1O	inactive
CCC(NC(=O)Nc1nnc(C(F)(F)F)s1)(C(F)(F)F)C(F)(F)F	2 µM
O=C(COc1ccc(Cl)cc1Cl)NCCC1=CCCCC1	4.23 µM
Cc1ccc(-c2ccc(/C=C3\C(=O)ON=C3c3ccccc3)o2)c([N+](=O)[O-])c1	> 10 µM (inactive)
CN(C(=O)CCl)C1CCCc2ccccc21 (stereo not given)	inactive
COc1cc(/C=C2\COC/C(=C\c3cc(OC)c(OC)c(OC)c3)C2=O)cc(OC)c1OC	1.39 µM
CCOC(=O)c1cnc(-n2nc(C)cc2C)nc1NC1CCCCC1	inactive
Cc1ccc(Cn2c(SCC(=O)Nc3cc(C)on3)nc3ccccc3c2=O)cc1	> 10 µM (inactive)
O=c1c(Br)c(Br)cnn1-c1ccccc1	inactive
O=C1c2ccc3c4c(ccc(c24)C(=O)N1c1cccc(O)c1)C(=O)N(c1cccc(O)c1)C3=O	inactive
COc1ccc(/C=C2/SC(=S)N(CCCC(=O)Nc3ccc(O)cc3)C2=O)cc1	0.18 µM
Cc1ccc(C(C(=O)NCc2ccco2)N(C(=O)CNC(=O)c2cccs2)c2c(C)cccc2C)cc1 (stereo not given)	> 10 µM (inactive)
CCCCCCCC(=O)N/N=C/c1ccc(Br)cc1	4.47 µM
CCOc1cccc(CN2CCN(c3cccc(C(F)(F)F)c3)CC2)c1O	> 10 µM (inactive)
CCc1ccc(OCC(=O)NC(NC(=S)Nc2ccc(Cl)cc2)C(Cl)(Cl)Cl)cc1 (stereo not given)	inactive
COc1ccccc1-n1cc([C@@H]2C[C@H]3CN(c4ccccc4)C(=O)[C@]34CCCN24)cn1	0.74 µM
Fc1c(F)c(C(F)(F)F)c(F)c(F)c1N/N=C\c1cccs1	4.26 µM
CCOC(=O)N=Nc1c2ccccc2c2nc3no[nH]c3nc12	inactive
COC(=O)[C@]12OC[C@]34C([C@@H](O)[C@@H]1O)[C@]1(C)CC(=O)C(O)=C(C)[C@@H]1C[C@H]3OC(=O)[C@H](O)[C@@H]24 (stereo not given in full)	inactive

SMILES	IC50
CC(C)(C)c1ccc(CN2N=Nc3ccccc3S2(=O)=O)cc1	inactive
CCCCCCn1c(-c2ccco2)nc2oc3cc(OC)ccc3c(=O)c2c1=O	> 10 µM (inactive)
C=C(C)COc1ccc(-c2n[nH]c(C)c2Oc2ccccc2OC)c(O)c1	inactive
C=CCn1c(C)cc(C2=NNC(=NCC)SC2)c1C	< 0.16 µM (inactive)
CC(C)=C1C2CCC1C(C(=O)Nc1sc(C)c(-c3ccc(C(C)C)cc3)c1C(N)=O)C2C(=O)O (stereo not given)	inactive
CCC(Cc1ccccc1)n1c(=S)[nH]c2ccccc2c1=O (stereo not given)	> 10 µM (inactive)
Cc1ccc(-n2ncc(Br)c(Br)c2=O)cc1	inactive
O=C(NCCNC(=O)c1cc(OCC(F)(F)F)ccc1OCC(F)(F)F)Nc1cccc(C(F)(F)F)c1	> 10 µM (inactive)
O=C1c2ccccc2C(=O)c2c1oc(C(F)(F)F)c2C(=O)c1ccccc1	inactive
O=C(Nc1ccc([N+](=O)[O-])cc1)Nc1ccc(OC(F)F)c(Cl)c1	inactive
Cn1c(=O)c(C(=O)Nc2ncccc2O)c(O)c2ccccc21	> 10 µM (inactive)
CCSc1nc2ccccc2n1C(=O)/C=C/c1ccc(OC)c(OC)c1	4.84 µM
CC1=NN(c2nc(-c3ccc(C)cc3)cs2)C(=O)C1N=Nc1ccccc1O (stereo not given)	inactive
CN(C)CCCn1c(SCC(=O)Nc2nc(-c3cccc(Br)c3)cs2)nc2ccccc2c1=O	> 10 µM (inactive)
CC(C)(C)C(=O)NC(NC(=S)Nc1sc2c(c1C#N)CCCC2)C(Cl)(Cl)Cl (stereo not given)	> 10 µM (inactive)
Oc1ccc(/C=N/Nc2nc(N3CCCCCC3)nc(N3CCCCCC3)n2)c(O)c1	> 10 µM (inactive)
Cc1cc(C(C)(C)C)oc1C(=O)N1CCN(C(=O)c2oc(C(C)(C)C)cc2C)CC1	> 10 µM (inactive)
CCSc1nc2ccccc2n1C(=O)/C=C\c1ccc(OC)c(OC)c1	4.66 µM
O=C(Nc1ccccc1)C1=C(c2ccccc2)S(=O)(=O)CCS1(=O)=O	inactive
CCOC(=O)COc1ccccc1/C=C\[N+](=O)[O-]	inactive
CCCCCCN1C=CC(=C2C(=O)c3ccccc3C2=O)C=C1	inactive
CC1CCN(S(=O)(=O)c2ccc3c(c2)C(=NO)c2cc(S(=O)(=O)N4CCC(C)CC4)ccc2-3)CC1	1.27 µM
O=C(CCl)Nc1cn(-c2ccccc2)nc1-c1ccccc1	inactive
CC(/C=C1\SC(=O)N(CCCC(=O)O)C1=O)=C\c1ccccc1	< 0.16 µM
COc1ccc(Cc2nc3ccccc3n2CC(=O)N/N=C/c2ccc(C)cc2O)cc1OC	> 10 µM (inactive)
